Results published in PubChem BioAssay (NCI).
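In this assay, cells in 96-well plates receive the compound at five concentrations for 48 hours. Endpoints are linearly interpolated between the surrounding concentrations. The concentration for 50% growth inhibition is given as GI50. At the TGI there is no net growth.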

Key:
Assay in all cases: inhibition of tumour cell growth, NCI panel, 48 h; in the data active = GI50 below about 0.43 µM; inactive = the rest
[1] = test system: HL-60(TB) leukemia
[2] = test system: K-562 leukemia
[3] = test system: MDA-MB-231 breast
[4] = test system: SN12C renal
[5] = test system: A498 renal
[6] = test system: SW-620 colon
[7] = test system: KM12 colon
[8] = test system: MOLT-4 leukemia
[9] = test system: IGROV1 ovarian
[10] = test system: EKVX NSCLC

Cc1ccc(S(=O)(=O)N2C/C(=C\c3cc(F)cc(F)c3)C(=O)/C(=C/c3cc(F)cc(F)c3)C2)cc1
2.11 µM: TGI [8]
1.4 µM: TGI [9]
1.05 µM: TGI [1]
0.704 µM: TGI [7]
0.861 µM: TGI [4]
1.24 µM: TGI [2]
inactive: GI50 [5] 1.57 µM
active: GI50 [1] 0.243 µM | GI50 [2] 0.0605 µM | GI50 [3] 0.285 µM | GI50 [4] 0.272 µM | GI50 [6] 0.0582 µM | GI50 [7] 0.268 µM | GI50 [8] 0.299 µM | GI50 [9] 0.371 µM
0.867 µM: TGI [3]
0.283 µM: TGI [6]
3.41 µM: TGI [5]

COC(=O)CCC(=O)C(C#N)c1ccc(Cl)cc1Cl (stereo unspecified)
> 100 µM: TGI [10] | TGI [1] | TGI [2] | TGI [4] | TGI [6] | TGI [7] | TGI [8] | TGI [9]

C[C@H]1[C@H](C)CC[C@]2(C(=O)O)CC[C@]3(C)C(=CC[C@@H]4[C@@]5(C)CC[C@H](OC(=O)/C=C\c6ccc(O)cc6)C(C)(C)[C@@H]5CC[C@]43C)[C@H]12
inactive: GI50 [10] 3.11 µM | GI50 [3] 2.55 µM | GI50 [4] 1.67 µM | GI50 [5] 15 µM | GI50 [6] 17.6 µM | GI50 [8] 4.56 µM | GI50 [9] 15.5 µM
> 100 µM: TGI [9]
13.5 µM: TGI [3]
13.7 µM: TGI [10]
19.7 µM: TGI [8]
33.7 µM: TGI [6]
29.2 µM: TGI [5]
6.76 µM: TGI [4]

COc1cc2c(cc1C)NC(=O)/C2=C/c1c(C)nc2sc(C)cn12
inactive: GI50 [10] 49.2 µM | GI50 [2] 35.3 µM | GI50 [3] 40.9 µM | GI50 [4] 74.5 µM | GI50 [6] 63 µM | GI50 [7] 40.7 µM | GI50 [8] 34.4 µM | GI50 [9] 26.8 µM
> 100 µM: TGI [10] | TGI [2] | TGI [3] | TGI [4] | TGI [6] | TGI [7] | TGI [8] | TGI [9]

O=c1nc2[nH]nc(-c3ccccc3)c2n[nH]1
> 100 µM: TGI [10] | TGI [1] | TGI [2] | TGI [4] | TGI [5] | TGI [6] | TGI [7] | TGI [8] | TGI [9]

NC(CCCNCc1ccccc1O)C(=O)O (stereo unspecified)
> 100 µM: TGI [10] | TGI [1] | TGI [2] | TGI [4] | TGI [5] | TGI [6] | TGI [7] | TGI [8] | TGI [9]

N#Cc1ccccc1/C=N/O
> 62.2 µM: TGI [1]
> 100 µM: TGI [10] | TGI [4] | TGI [5] | TGI [7] | TGI [8] | TGI [9]
> 51.8 µM: TGI [6]
> 65.6 µM: TGI [2]

COC(=O)/C(Cl)=C1/CC1COCc1ccccc1 (stereo unspecified)
77.4 µM: TGI [7]
> 100 µM: TGI [4] | TGI [9]
96.9 µM: TGI [5]
38.7 µM: TGI [1]
53.5 µM: TGI [8]
49.9 µM: TGI [2]
> 10 µM: TGI [10]
45.1 µM: TGI [6]

COc1cc([C@@H]2c3cc4c(cc3[C@@H](NC(=O)c3ccc([N+](=O)[O-])cc3)C3COC(=O)[C@@H]32)OCO4)cc(OC)c1O (stereo partly specified)
0.407 µM: TGI [1]
1.37 µM: TGI [4]
4.21 µM: TGI [6]
> 100 µM: TGI [2]
1.31 µM: TGI [8]
3.9 µM: TGI [5]
4.19 µM: TGI [7]
3.44 µM: TGI [9]
6.55 µM: TGI [10]

OCCCNC(=S)Nc1ccc(-c2nc3ccccc3s2)cc1
83.2 µM: TGI [10]
inactive: GI50 [10] 17 µM | GI50 [1] 25.5 µM | GI50 [2] 29.7 µM | GI50 [3] 16.5 µM | GI50 [4] 22.8 µM | GI50 [6] 47.7 µM | GI50 [7] 17.8 µM | GI50 [8] 16.7 µM | GI50 [9] 13.5 µM
43.5 µM: TGI [3]
46.9 µM: TGI [7]
> 100 µM: TGI [1] | TGI [2] | TGI [6] | TGI [8]
95.4 µM: TGI [9]
54.8 µM: TGI [4]

C/C(CN1C(=O)c2ccccc2C1=O)=N\NS(C)(=O)=O
> 100 µM: TGI [10] | TGI [1] | TGI [2] | TGI [4] | TGI [5] | TGI [6] | TGI [7] | TGI [8] | TGI [9]

Cc1ccc(S(=O)(=O)C2=C3C(=C(c4ccccc4)c4ccccc43)CN(S(=O)(=O)c3ccc(C)cc3)C2)cc1
inactive: GI50 [10] 6.01 µM | GI50 [1] 11.2 µM | GI50 [2] 2.08 µM | GI50 [3] 2.9 µM | GI50 [4] 3.04 µM | GI50 [6] 0.636 µM | GI50 [7] 5.87 µM | GI50 [8] 1.36 µM | GI50 [9] 5.36 µM
3.4 µM: TGI [6]
7.9 µM: TGI [8]
62.6 µM: TGI [9]
11.1 µM: TGI [3]
> 100 µM: TGI [10] | TGI [1] | TGI [2] | TGI [7]
20.1 µM: TGI [4]

Cn1c(-c2ccccc2)c/c(=N\NS(C)(=O)=O)c2cc(S(=O)(=O)O)ccc21
> 100 µM: TGI [10] | TGI [1] | TGI [2] | TGI [4] | TGI [6] | TGI [7] | TGI [8] | TGI [9]

Clc1ccc(CCn2cncn2)c(Cl)c1
> 100 µM: TGI [10] | TGI [1] | TGI [2] | TGI [4] | TGI [6] | TGI [7] | TGI [8] | TGI [9]

[O-][N+]1=C(c2ccccc2)COc2ccccc21
> 100 µM: TGI [1] | TGI [2] | TGI [4] | TGI [5] | TGI [6] | TGI [7] | TGI [8] | TGI [9]

COc1ccc(OC)c(/C=C/c2cnnc3ccccc23)c1
> 10 µM: TGI [10] | TGI [1] | TGI [2] | TGI [3] | TGI [4] | TGI [6] | TGI [7] | TGI [8] | TGI [9]

Cc1cc2c(=O)cc(-c3ccc(C(=O)O)cc3)oc2c(C(=O)O)c1C
> 100 µM: TGI [10] | TGI [1] | TGI [2] | TGI [4] | TGI [6] | TGI [7] | TGI [8] | TGI [9]

COC(C(=O)[C@@H](O)[C@@H](C)O)[C@@H]1Cc2cc3cc(O[C@H]4C[C@@H](O[C@H]5C[C@@H](O)[C@H](O)C(C)O5)[C@H](O)C(C)O4)c(C)c(O)c3c(O)c2C(=O)[C@H]1O[C@H]1C[C@@H](O[C@H]2C[C@@H](O[C@H]3C[C@@H](O)[C@@H](O)C(C)O3)[C@@H](O)C(C)O2)[C@H](O)C(C)O1 (stereo partly specified)
> 32.5 µM: TGI [10] | TGI [1] | TGI [2] | TGI [4] | TGI [6] | TGI [8]
0.278 µM: TGI [5]
11.3 µM: TGI [7]
active: GI50 [2] 0.312 µM | GI50 [4] 0.265 µM | GI50 [5] 0.0542 µM | GI50 [7] 0.207 µM
inactive: GI50 [10] 0.78 µM | GI50 [1] 6.61 µM | GI50 [6] 0.715 µM | GI50 [8] 1.04 µM

O=C1/C(=c2\c3ccccc3n3c(=O)c4ccccc4nc23)Nc2ccccc21
> 100 µM: TGI [10] | TGI [2] | TGI [3] | TGI [4] | TGI [5] | TGI [6] | TGI [7] | TGI [9]
> 31.6 µM: TGI [8]

FC(F)(F)c1ccccc1C=NC12CC3CC(CC(C3)C1)C2
> 100 µM: TGI [10] | TGI [1] | TGI [2] | TGI [4] | TGI [5] | TGI [6] | TGI [7] | TGI [8] | TGI [9]
